Laboratory results published in US20220152031A1, “PYRIDAZINONES AND METHODS OF USE THEREOF” (Goldfinch Bio, Inc., priority 2019, published 2022).
Read-outs that look alike come from different tables or passages of the source.

Molecular target: T1, TRPC4 (Homo sapiens, UniProt Q9UBN4)
T1 construct: expressed in transfected cells
T1 sequence (Q9UBN4 1-982 isoform Q9UBN4-5): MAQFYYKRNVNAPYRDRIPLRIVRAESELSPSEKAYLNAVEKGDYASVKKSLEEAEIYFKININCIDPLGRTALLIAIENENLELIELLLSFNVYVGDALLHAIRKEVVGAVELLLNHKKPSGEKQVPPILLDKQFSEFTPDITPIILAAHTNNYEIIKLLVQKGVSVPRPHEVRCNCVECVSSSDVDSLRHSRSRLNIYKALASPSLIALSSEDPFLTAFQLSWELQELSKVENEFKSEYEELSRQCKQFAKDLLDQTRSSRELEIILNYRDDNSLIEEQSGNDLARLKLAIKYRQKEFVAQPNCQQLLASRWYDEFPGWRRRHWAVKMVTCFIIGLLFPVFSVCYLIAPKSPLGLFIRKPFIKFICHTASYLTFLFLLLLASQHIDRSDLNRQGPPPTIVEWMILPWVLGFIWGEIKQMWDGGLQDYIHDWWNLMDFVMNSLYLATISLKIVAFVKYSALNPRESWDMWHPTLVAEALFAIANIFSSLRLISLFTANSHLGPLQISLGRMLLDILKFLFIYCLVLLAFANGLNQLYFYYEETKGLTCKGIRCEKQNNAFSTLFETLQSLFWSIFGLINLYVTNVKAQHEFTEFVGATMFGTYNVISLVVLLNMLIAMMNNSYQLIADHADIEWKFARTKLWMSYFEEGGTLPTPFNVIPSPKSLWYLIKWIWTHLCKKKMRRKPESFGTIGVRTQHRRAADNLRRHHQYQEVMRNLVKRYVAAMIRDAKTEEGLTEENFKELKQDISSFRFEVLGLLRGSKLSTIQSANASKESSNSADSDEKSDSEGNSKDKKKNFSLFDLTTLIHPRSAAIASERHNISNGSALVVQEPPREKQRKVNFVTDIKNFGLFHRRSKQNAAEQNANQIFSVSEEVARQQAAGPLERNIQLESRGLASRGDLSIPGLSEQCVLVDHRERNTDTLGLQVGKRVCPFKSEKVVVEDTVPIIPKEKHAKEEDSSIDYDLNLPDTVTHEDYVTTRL
Assay: TRPC4 activity assay (FLIPR calcium fluorescence, HEK-TREx hTRPC4 cells)
Assay type: cell-based
Method: ICLN-1694 cells (HEK-TREx hTRPC4) expressing TRPC4 were generated as follows. Commercially available HekTrex-293 cells were seeded at 0.7×10^6 cells/well in a 1×6-well plate 24 hrs prior to transfection using 2 mL cell growth media containing no antibiotics (lx DMEM/high glucose (Hyclone #SH30022.02); 10% fetal bovine serum (Sigma) 2 mM sodium pyruvate, 10 mM HEPES). […] On day 2, 2 μg of plasmid DNA plus 6 μl of Xtreme-GENE HP reagent in Optimem (200 μl total volume) was prepared and incubated for 15 min at room temperature. This plasmid solution was then gently overlayed dropwise onto each well and the plate was gently swirled to mix complex with the media for approximately 30 seconds. Transfected cells were incubated at 37° C. in a 10% CO2 incubator for 24 hrs. The transfected cells were harvested and transferred into 2×150 mm dishes containing cell growth media with no antibiotics at 37° C.
The next day selection was initiated to generate a stable pool by adding cell growth media containing 150 μg/mL Hygromycin and 5 μg/mL Blasticidin and cells were allowed to grow. Media with the selection agent was changed every 1-2 days as needed to remove dead cells. After 7 days, the hygromycin concentration was reduced to 75 μg/mL and cells growth was allowed to continue.
Single clones were selected as follows. The stable pool was diluted to 10 cells/mL and seeded (100 μl/well) into 24×96 well plates (˜1 cell/well) and allowed to grow for 7 days in cell growth media. Fresh media (100 μl) was added and the cells allowed to grow for another 1-2 weeks and then stored frozen or used immediately.
10-point dose response curves were generated using the Echo-550 acoustic dispenser. Compound source plates were made by serially diluting compound stocks to create 10 mM, 1 mM, and 0.1 mM solutions in DMSO into Echo-certified LDV plates. The Echo then serially spotted 100% DMSO stock solutions into source dose response plates to generate a 4-fold dilution scheme. 100% DMSO was added to the spotted dose response plates to bring the final volume to 5 μl. 300 nl of the dose response stock plate was then spotted into pre-incubation and stimulation assay plates. 50 μl of pre-incubation buffer and 100 μl of stimulation buffer was then added to the plates resulting in a final assay test concentration range of 30 μM to 0.0001 μM with a final DMSO concentration of 0.3%.
ICLN-1694 cells (HEK-TREx hTRPC4) were plated onto 384 well, black pdl-coated microplates and maintained in cell growth media supplemented with 1 μg/mL tetracycline the day prior to use for experiments. TRPC4 expression was induced by the application of 1 μg/mL tetracycline at the time of plating. […] Cells were incubated at room temperature, protected from light, for 60-90 minutes. After the incubation period, the dye was removed and replaced with 10 μl of EBSS. Cell, pre-incubation and stimulation plates were loaded onto the FLIPR-II and the assay was initiated. The FLIPR measured a 10 second baseline and then added 10 μl of 2× compounds (or controls). Changes in fluorescence were monitored for an additional 5 minutes. After a 5 minute pre-incubation, 20 μl of 2× Englerin A (with 1× compound or controls) was added to the cell plate. The final Engerlin A stimulation concentration in the assay was 100 nM. After the Englerin A addition, changes in fluorescence were monitored for an additional 5 minutes.
Compound modulation of TRPC4 calcium response was determined as follows. After the Englerin A, fluorescence was monitored for a 5-minute period. The maximum relative fluorescence response (minus the control response of 1 μM of an internal control compound known to maximally block TRPC4 calcium response, the “REF INHIB” in the formula below) was captured and exported from the FLIPR.
Compound effect is calculated as % inhibition using the following formula: […]
wherein “RFU” is the relative fluorescent units.

[1] = Table 7, HEK-TREx hTRPC4, read-out: TRPC4-FLIPR IC50
[2] = Table 5, HEK-TREx hTRPC4, read-out: TRPC4 FLIPR IC50
[3] = Table 6, HEK-TREx hTRPC4, read-out: hTRPC4-FLIPR IC50

SMILES | IC50 [1] | IC50 [2] | IC50 [3]
CN1CCN(Cc2nn(Cc3ccccc3C(F)F)c3c2CN(c2cn[nH]c(=O)c2Cl)CC3)CC1 [OU, 4-Chloro-5-(1-[[2-(difluoromethyl)phenyl]methyl]-3-[(4-methylpiperazin-1-yl)methyl]-1H,4H,5H,6H,7H-pyrazolo[4,3-c]pyridin-5-yl)-2,3-dihydropyridazin-3-one] | 0.01 to 1000 nM | – | –
CN(c1ncc2c(n1)CN(c1cn[nH]c(=O)c1Cl)C2)c1ccccc1C(F)(F)F [QM] | 0.01 to 1000 nM | 0.01 to 1000 nM | –
CN1CCN(C(=O)c2nn(Cc3ccccc3C(F)F)c3c2CN(c2cn[nH]c(=O)c2Cl)CC3)CC1 [OM] | 0.01 to 1000 nM | – | –
C[C@@H]1Cc2c(nnn2[C@H](C)c2ccccc2C(F)(F)F)CN1c1cn[nH]c(=O)c1Cl [MX, 4-chloro-5-[(6R)-6-methyl-1-[(1R)-1-[2-(trifluoromethyl)phenyl]ethyl]-1H,4H,5H,6H,7H-[1,2,3]triazolo[4,5-c]pyridin-5-yl]-2,3-dihydropyridazin-3-one] | 0.01 to 1000 nM | 0.01 to 1000 nM | –
CCc1ncccc1N(CC)C1CCN(c2cn[nH]c(=O)c2Cl)CC1 [LW, 4-chloro-5-[4-[ethyl(2-ethylpyridin-3-yl)amino]piperidin-1-yl]-2,3-dihydropyridazin-3-one] | – | 0.01 to 1000 nM | 0.01 to 1000 nM
CC(c1ccc(F)cc1C(F)(F)F)N1CCN(c2cn[nH]c(=O)c2Cl)CC1=O (single isomer, unassigned) [MF] | – | – | 0.01 to 1000 nM

The remaining lines, values ahead:

IC50 [1] | IC50 [2] | IC50 [3] | SMILES
0.01 to 1000 nM | 0.01 to 1000 nM | – | CN(C)C(=O)c1nc2c(n1Cc1ccccc1C(F)(F)F)CCN(c1cn[nH]c(=O)c1Cl)C2 [PW]
– | 0.01 to 1000 nM | 0.01 to 1000 nM | CCc1ncccc1[C@H](C)N1CCN(c2cn[nH]c(=O)c2Cl)CC1 [LY, 4-chloro-5-[4-[(1S)-1-(2-ethylpyridin-3-yl)ethyl]piperazin-1-yl]-2,3-dihydropyridazin-3-one]
– | 0.01 to 1000 nM | – | O=C1CN(c2cn[nH]c(=O)c2Cl)CCN1Cc1ccccc1C(F)(F)F [AO]
0.01 to 1000 nM | 0.01 to 1000 nM | – | NC(=O)c1nn(Cc2ccccc2C(F)(F)F)c2c1CN(c1cn[nH]c(=O)c1Cl)CC2 [OP, 5-(5-Chloro-6-oxo-1,6-dihydropyridazin-4-yl)-1-[[2-(trifluoromethyl)phenyl]methyl]-1H,4H,5H,6H,7H-pyrazolo[4,3-c]pyridine-3-carboxamide]
